Columns and labels:
[1] = target: P-gp (Homo sapiens, UniProt P08183); conditions: literature reference 29; cited from earlier work
[2] = test system: organotypic nasal polyp explants

Chain of P-gp (P08183 whole entry): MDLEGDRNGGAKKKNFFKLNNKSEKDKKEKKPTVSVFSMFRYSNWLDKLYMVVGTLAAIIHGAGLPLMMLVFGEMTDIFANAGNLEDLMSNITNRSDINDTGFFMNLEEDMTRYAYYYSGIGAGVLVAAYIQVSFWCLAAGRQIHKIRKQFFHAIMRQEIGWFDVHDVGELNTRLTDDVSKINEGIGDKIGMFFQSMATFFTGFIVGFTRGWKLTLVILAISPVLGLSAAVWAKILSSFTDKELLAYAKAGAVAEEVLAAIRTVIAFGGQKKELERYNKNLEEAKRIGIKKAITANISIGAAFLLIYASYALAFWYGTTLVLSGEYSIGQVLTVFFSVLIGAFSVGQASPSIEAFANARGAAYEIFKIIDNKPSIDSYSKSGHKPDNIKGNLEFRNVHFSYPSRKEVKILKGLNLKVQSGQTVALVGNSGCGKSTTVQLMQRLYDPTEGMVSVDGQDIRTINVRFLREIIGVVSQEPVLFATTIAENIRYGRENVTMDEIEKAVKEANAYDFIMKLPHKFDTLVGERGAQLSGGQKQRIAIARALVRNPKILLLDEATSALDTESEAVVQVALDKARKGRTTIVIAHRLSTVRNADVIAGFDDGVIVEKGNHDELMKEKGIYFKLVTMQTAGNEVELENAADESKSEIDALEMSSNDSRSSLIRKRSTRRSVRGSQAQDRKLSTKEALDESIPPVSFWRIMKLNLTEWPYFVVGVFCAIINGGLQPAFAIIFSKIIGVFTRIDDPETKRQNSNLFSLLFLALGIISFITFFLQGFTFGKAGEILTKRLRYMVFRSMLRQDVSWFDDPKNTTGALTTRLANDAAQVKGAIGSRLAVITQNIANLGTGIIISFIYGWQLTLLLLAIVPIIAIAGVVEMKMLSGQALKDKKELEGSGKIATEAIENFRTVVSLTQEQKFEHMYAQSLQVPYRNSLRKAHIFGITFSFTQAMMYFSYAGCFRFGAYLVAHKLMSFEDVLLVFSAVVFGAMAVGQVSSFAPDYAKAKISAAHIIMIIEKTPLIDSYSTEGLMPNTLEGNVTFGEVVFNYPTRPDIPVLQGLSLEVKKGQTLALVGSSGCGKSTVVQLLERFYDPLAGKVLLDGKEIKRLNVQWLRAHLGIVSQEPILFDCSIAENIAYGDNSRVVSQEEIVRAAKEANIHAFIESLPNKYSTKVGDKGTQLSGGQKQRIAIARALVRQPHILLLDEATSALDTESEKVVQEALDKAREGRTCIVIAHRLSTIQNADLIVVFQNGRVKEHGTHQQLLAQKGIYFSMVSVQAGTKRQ

SMILES | affinity for P-gp [1] | tissue mometasone retention in polyps versus lower P-gp expressing turbinates [2] | reduction in mometasone retention between the lowest and highest P-gp expressing polyp explants ([2]; human, not told, 60 min) | P-gp substrate status ([2]; not told)
CCCC1O[C@@H]2C[C@H]3[C@@H]4CCC5=CC(=O)C=C[C@]5(C)[C@H]4[C@@H](O)C[C@]3(C)[C@]2(C(=O)CO)O1 (stereo partly shown) [budesonide] | high affinity |  |  | 
C[C@@H]1C[C@H]2[C@@H]3CCC4=CC(=O)C=C[C@]4(C)[C@@]3(Cl)[C@@H](O)C[C@]2(C)[C@@]1(OC(=O)c1ccco1)C(=O)CCl [mometasone, [(8S,9R,10S,11S,13S,14S,16R,17R)-9-chloro-17-(2-chloroacetyl)-11-hydroxy-10,13,16-trimethyl-3-oxo-6,7,8,11,12,14,15,16-octahydrocyclopenta[a]phenanthren-17-yl]furan-2-carboxylate] |  | significantly lower | ~6 fold | substrate of P-gp
